In patent US20250340557A1, “PYRIMIDINE DERIVATIVE” (ASKA PHARMACEUTICAL CO., LTD., priority 2022, published 2025):

What follows are compounds tested against T1, human mPGES-1 (Homo sapiens, UniProt O14684) (assay: Test for mPGES-1 inhibitory activity (microsomal enzyme, PGE2 EIA)). Conditions: microsomes from COS-1 cells transfected with human mPGES-1 cDNA; substrate PGH2 1 μM; 4° C., 4 minutes; PGE2 measured by EIA; read-out: h mPGES1 IC50.
T1 construct: made in house; host or cells: COS-1 cells (transient transfection; microsomal fraction used as enzyme)
T1 sequence (O14684 1-152): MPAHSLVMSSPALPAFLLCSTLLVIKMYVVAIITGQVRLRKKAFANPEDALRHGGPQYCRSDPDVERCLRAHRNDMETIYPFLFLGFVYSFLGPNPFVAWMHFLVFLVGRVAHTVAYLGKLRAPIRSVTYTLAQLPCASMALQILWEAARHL
Type: biochemical
Protocol: Test Example 1: Test for mPGES-1 Inhibitory Activity
Microsomes were prepared from COS-1 cells transiently transfected with a plasmid containing human mPGES-1 cDNA, and used as mPGES-1 enzyme. The mPGES-1 enzyme was diluted with a sodium phosphate buffer (pH 7.2) containing reduced glutathione (2.5 mM) and EDTA (1 mM), DMSO or a DMSO solution of a test compound (final concentration of DMSO was 2%) was added to the enzyme, and the mixture was preincubated at 4° C. for 15 minutes. Then, PGH2 (Prostaglandin H2) as the substrate was added at a final concentration of 1 μM to start the enzymatic reaction, and after incubation at 4° C. for 4 minutes, a solution of ferric chloride (25 mM) and citric acid (50 mM) was added to terminate the enzymatic reaction. Generated PGE2 (Prostaglandin E2) was measured by using Prostaglandin E2 Express EIA Kit (Cayman Chemical). IC50 values were determined by using a standard method.

Row | Structure (SMILES) | IC50
1 | Cc1nc(-c2c(C(F)(F)F)ccc(CNC(=O)C3CCN(c4ncc(Cl)cc4F)CC3)c2F)[nH]c(=O)c1F [Example 52, 1-(5-chloro-3-fluoropyridin-2-yl)-N-[2-fluoro-3-(5-fluoro-4-methyl-6-oxo-1,6-dihydropyrimidin-2-yl)-4-(trifluoromethyl)benzyl]piperidine-4-carboxamide] | 15 nM
2 | Cc1cc(=O)[nH]c(-c2c(C(F)(F)F)ccc(CNC(=O)C3CCN(c4ccc(OC(F)(F)F)cn4)CC3)c2F)n1 [Example 53, N-[2-fluoro-3-(4-methyl-6-oxo-1,6-dihydropyrimidin-2-yl)-4-(trifluoromethyl)benzyl]-1-[5-(trifluoromethoxy)pyridin-2-yl]piperidine-4-carboxamide] | 49 nM
3 | Cc1cc(=O)[nH]c(-c2c(C(F)(F)F)ccc(CNC(=O)C3(F)CCN(c4ccc(C(F)(F)F)cn4)CC3)c2F)n1 [Example 56, 4-fluoro-N-[2-fluoro-3-(4-methyl-6-oxo-1,6-dihydropyrimidin-2-yl)-4-(trifluoromethyl)benzyl]-1-[5-(trifluoromethyl)pyridin-2-yl]piperidine-4-carboxamide] | 21 nM
4 | Cc1cccc(N2CCC(C(=O)NCc3ccc(C(F)(F)F)c(-c4nc(C(F)(F)F)cc(=O)[nH]4)c3F)CC2)c1 [Example 59, N-{2-fluoro-3-[6-oxo-4-(trifluoromethyl)-1,6-dihydropyrimidin-2-yl]-4-(trifluoromethyl)benzyl}-1-(3-methylphenyl)piperidine-4-carboxamide] | 4.2 nM
5 | O=C(NCc1ccc(C(F)(F)F)c(-c2nc(C(F)(F)F)cc(=O)[nH]2)c1F)C1CCN(c2ccc(C(F)(F)F)cc2)CC1 [Example 63, N-{2-fluoro-3-[6-oxo-4-(trifluoromethyl)-1,6-dihydropyrimidin-2-yl]-4-(trifluoromethyl)benzyl}-1-[4-(trifluoromethyl)phenyl]piperidine-4-carboxamide] | 1.1 nM
6 | O=C(NCc1ccc(C(F)(F)F)c(-c2nc(C(F)(F)F)cc(=O)[nH]2)c1F)C1CCN(c2cccc(C(F)F)c2)CC1 [Example 65, 1-[3-(difluoromethyl)phenyl]-N-{2-fluoro-3-[6-oxo-4-(trifluoromethyl)-1,6-dihydropyrimidin-2-yl]-4-(trifluoromethyl)benzyl}piperidine-4-carboxamide] | < 1 nM
7 | O=C(NCc1ccc(C(F)(F)F)c(-c2nc(C(F)(F)F)cc(=O)[nH]2)c1F)C1CCN(c2ccc(Cl)c(Cl)c2)CC1 [Example 66, 1-(3,4-dichlorophenyl)-N-{2-fluoro-3-[6-oxo-4-(trifluoromethyl)-1,6-dihydropyrimidin-2-yl]-4-(trifluoromethyl)benzyl}piperidine-4-carboxamide] | < 1 nM
8 | O=C(NCc1ccc(C(F)(F)F)c(-c2nc(C(F)(F)F)cc(=O)[nH]2)c1F)C1CCN(c2cccc(C(F)(F)F)c2)CC1 [Example 67, N-{2-fluoro-3-[6-oxo-4-(trifluoromethyl)-1,6-dihydropyrimidin-2-yl]-4-(trifluoromethyl)benzyl}-1-[3-(trifluoromethyl)phenyl]piperidine-4-carboxamide] | < 1 nM
9 | O=C(NCc1ccc(C(F)(F)F)c(-c2nc(C(F)(F)F)cc(=O)[nH]2)c1F)C1CCN(c2ccc(OC(F)(F)F)cc2)CC1 [Example 68, N-{2-fluoro-3-[6-oxo-4-(trifluoromethyl)-1,6-dihydropyrimidin-2-yl]-4-(trifluoromethyl)benzyl}-1-[4-(trifluoromethoxy)phenyl]piperidine-4-carboxamide] | < 1 nM
10 | O=C(NCc1ccc(C(F)(F)F)c(-c2nc(C(F)(F)F)cc(=O)[nH]2)c1F)C1CCN(c2cccc(Cl)c2Cl)CC1 [Example 69, 1-(2,3-dichlorophenyl)-N-{2-fluoro-3-[6-oxo-4-(trifluoromethyl)-1,6-dihydropyrimidin-2-yl]-4-(trifluoromethyl)benzyl}piperidine-4-carboxamide] | 8.4 nM
11 | O=C(NCc1ccc(C(F)(F)F)c(-c2nc(C(F)(F)F)cc(=O)[nH]2)c1F)C1CCN(c2ccc(Cl)cc2F)CC1 [Example 70, 1-(4-chloro-2-fluorophenyl)-N-{2-fluoro-3-[6-oxo-4-(trifluoromethyl)-1,6-dihydropyrimidin-2-yl]-4-(trifluoromethyl)benzyl}piperidine-4-carboxamide] | 10 nM
12 | O=C(NCc1ccc(C(F)(F)F)c(-c2nc(C(F)(F)F)cc(=O)[nH]2)c1F)C1CCN(c2ccc(OC(F)F)cc2)CC1 [Example 71, 1-[4-(difluoromethoxy)phenyl]-N-{2-fluoro-3-[6-oxo-4-(trifluoromethyl)-1,6-dihydropyrimidin-2-yl]-4-(trifluoromethyl)benzyl}piperidine-4-carboxamide] | 10 nM
13 | Cc1nc(-c2c(C(F)(F)F)ccc(CNC(=O)C3CCN(c4ccc(OC(F)(F)F)cc4)CC3)c2F)[nH]c(=O)c1F [Example 72, N-[2-fluoro-3-(5-fluoro-4-methyl-6-oxo-1,6-dihydropyrimidin-2-yl)-4-(trifluoromethyl)benzyl]-1-[4-(trifluoromethoxy)phenyl]piperidine-4-carboxamide] | < 1 nM
14 | Cc1nc(-c2c(C(F)(F)F)ccc(CNC(=O)C3CCN(c4ccc(Cl)c(Cl)c4)CC3)c2F)[nH]c(=O)c1F [Example 73, 1-(3,4-dichlorophenyl)-N-[2-fluoro-3-(5-fluoro-4-methyl-6-oxo-1,6-dihydropyrimidin-2-yl)-4-(trifluoromethyl)benzyl]piperidine-4-carboxamide] | 4.4 nM
15 | O=C(NCc1ccc(C(F)(F)F)c(-c2nc(C(F)(F)F)cc(=O)[nH]2)c1F)C1CCN(c2cccc(OC(F)(F)F)c2)CC1 [Example 74, N-{2-fluoro-3-[6-oxo-4-(trifluoromethyl)-1,6-dihydropyrimidin-2-yl]-4-(trifluoromethyl)benzyl}-1-[3-(trifluoromethoxy)phenyl]piperidine-4-carboxamide] | < 1 nM
16 | N#Cc1ccc(N2CCC(C(=O)NCc3ccc(C(F)(F)F)c(-c4nc(C(F)(F)F)cc(=O)[nH]4)c3F)CC2)c(Cl)c1 [Example 75, 1-(2-chloro-4-cyanophenyl)-N-{2-fluoro-3-[6-oxo-4-(trifluoromethyl)-1,6-dihydropyrimidin-2-yl]-4-(trifluoromethyl)benzyl}piperidine-4-carboxamide] | < 1 nM

More lines, now with the values ahead:

Row | IC50 | Structure (SMILES)
17 | < 1 nM | Cc1nc(-c2c(C(F)(F)F)ccc(CNC(=O)C3(F)CCN(c4ccc(C(F)(F)F)cn4)CC3)c2F)[nH]c(=O)c1F [Example 51, 4-fluoro-N-[2-fluoro-3-(5-fluoro-4-methyl-6-oxo-1,6-dihydropyrimidin-2-yl)-4-(trifluoromethyl)benzyl]-1-[5-(trifluoromethyl)pyridin-2-yl]piperidine-4-carboxamide]
18 | < 1 nM | O=C(NCc1ccc(C(F)(F)F)c(-c2nc(C(F)F)cc(=O)[nH]2)c1F)C1CCN(c2ncc(C(F)(F)F)cc2F)CC1 [Example 55, N-{3-[4-(difluoromethyl)-6-oxo-1,6-dihydropyrimidin-2-yl]-2-fluoro-4-(trifluoromethyl)benzyl}-1-[3-fluoro-5-(trifluoromethyl)pyridin-2-yl]piperidine-4-carboxamide]
19 | < 1 nM | CCc1nc(-c2c(C(F)(F)F)ccc(CNC(=O)C3CCN(c4ccc(Cl)cn4)CC3)c2F)[nH]c(=O)c1F [Example 57, 1-(5-chloropyridin-2-yl)-N-[3-(4-ethyl-5-fluoro-6-oxo-1,6-dihydropyrimidin-2-yl)-2-fluoro-4-(trifluoromethyl)benzyl]piperidine-4-carboxamide]
20 | < 1 nM | O=C(NCc1ccc(C(F)(F)F)c(-c2nc(C(F)(F)F)cc(=O)[nH]2)c1F)C1CCN(c2ccc(F)cc2)CC1 [Example 58, N-{2-fluoro-3-[6-oxo-4-(trifluoromethyl)-1,6-dihydropyrimidin-2-yl]-4-(trifluoromethyl)benzyl}-1-(4-fluorophenyl)piperidine-4-carboxamide]
21 | < 1 nM | Cc1cc(N2CCC(C(=O)NCc3ccc(C(F)(F)F)c(-c4nc(C(F)(F)F)cc(=O)[nH]4)c3F)CC2)ccc1F [Example 60, N-{2-fluoro-3-[6-oxo-4-(trifluoromethyl)-1,6-dihydropyrimidin-2-yl]-4-(trifluoromethyl)benzyl}-1-(4-fluoro-3-methylphenyl)piperidine-4-carboxamide]
22 | 0.87 nM | Cc1ccc(N2CCC(C(=O)NCc3ccc(C(F)(F)F)c(-c4nc(C(F)(F)F)cc(=O)[nH]4)c3F)CC2)cc1 [Example 61, N-{2-fluoro-3-[6-oxo-4-(trifluoromethyl)-1,6-dihydropyrimidin-2-yl]-4-(trifluoromethyl)benzyl}-1-(4-methylphenyl)piperidine-4-carboxamide]
23 | < 1 nM | O=C(NCc1ccc(C(F)(F)F)c(-c2nc(C(F)(F)F)cc(=O)[nH]2)c1F)C1CCN(c2cccc(Cl)c2)CC1 [Example 62, 1-(3-chlorophenyl)-N-{2-fluoro-3-[6-oxo-4-(trifluoromethyl)-1,6-dihydropyrimidin-2-yl]-4-(trifluoromethyl)benzyl}piperidine-4-carboxamide]
24 | < 1 nM | O=C(NCc1ccc(C(F)(F)F)c(-c2nc(C(F)(F)F)cc(=O)[nH]2)c1F)C1CCN(c2ccc(Cl)cc2)CC1 [Example 64, 1-(4-chlorophenyl)-N-{2-fluoro-3-[6-oxo-4-(trifluoromethyl)-1,6-dihydropyrimidin-2-yl]-4-(trifluoromethyl)benzyl}piperidine-4-carboxamide]
